Source: the METLIN SMRT retention time set (Domingo-Almenara et al. 2019)

Test: gradient 5% acetonitrile 3 min, to 50% in 2 min, to 85% in 15 min, held 3 min, 100 µL/min
Details: column: Zorbax Extend-C18 2.1 x 50 mm; eluents: water / acetonitrile, 0.1% formic acid
Summary of the method: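 Pure standards were run in mixtures of ~100 molecules by HPLC coupled to a quadrupole time-of-flight mass spectrometer. The column was a Zorbax Extend-C18 (2.1 × 50 mm, 1.8 μm) at 100 μL/min, with water and acetonitrile each containing 0.1% formic acid, in positive and negative ionization mode. Dead and dwell volumes were 40 μL and 900 μL. Retention time was taken from computationally picked adduct peaks, each manually inspected, with data collected over 3 months.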

| RP-LC retention time [s] | SMILES |
| --- | --- |
| 732 | COc1ccc(NC(=O)c2cnc3c(c2)c(=O)n(C)c(=O)n3C)cc1 |
| 666 | COCCn1ccc2nc(C)c(C(=O)Nc3ccc4c(c3)OCO4)cc2c1=O |
| 772 | O=C(Cc1ccsc1)NCCn1c(=O)n(Cc2ccccc2)c2cccnc21 |
| 776 | O=C(c1[nH]nc2c1CCc1ccccc1-2)N1CCC(c2noc(-c3cccnc3)n2)C1 (configuration not stated) |
| 720 | Cc1cccc(Cn2c(C)c(CNCCc3ccco3)c(C(=O)O)c2C)c1 |
| 686 | CCNC(=O)Nc1ccc(OCC(=O)NC(C)c2cccc(OC)c2)nc1 (configuration not stated) |
| 640 | Cc1nc2cc(-c3noc(-c4ccccc4C)n3)ccc2o1 |
| 894 | O=c1n(CCOc2ccc(F)cc2)nc2c(S(=O)(=O)N3CCCCC3)cccn12 |
| 894 | O=C(Cn1nc(N2CCOCC2)c2ccccc2c1=O)Nc1ccc(Br)cc1F |
| 708 | CCOCCOC1CCN(C(=O)Nc2ccc3c(c2)OCCO3)CC1 |
| 695 | O=C(NCc1c(F)cccc1F)C(=O)NCc1n[nH]c(=O)c2ccccc12 |
| 703 | COc1ccc(CC(=O)NCC2CCN(C(=O)c3cc4ccccc4o3)CC2)cc1OC |
| 528 | CCN(CC)C(=O)c1cc2c(s1)CCC(C(=O)NCc1cccnc1)C2 (configuration not stated) |
| 1180 | COc1ccc2c(c1)CCc1sc(NC(=O)c3cccc(Cl)c3)nc1-2 |
| 943 | Cc1ccccc1-c1nnc(CSc2nnc(NC(=O)c3ccccc3Br)s2)o1 |
| 843 | CC(=O)N1CCc2cc(-c3ccc(C(=O)NCCc4cccs4)cc3)ccc21 |
| 1020 | CC1CCc2onc(C(=O)N(C)Cc3ccccc3)c2C1 (configuration not stated) |
| 740 | COC(=O)CNC(=O)NC(C(=O)N1CCc2ccccc21)C(C)C (configuration not stated) |

| RP-LC retention time [s] | SMILES |
| --- | --- |
| 627 | O=S(=O)(CCOc1ccc(F)cc1)Nc1cccnc1 |
| 657 | Cn1cc(-c2cc3n(n2)CCC(=O)N3CC(=O)NCCCN2CCCC2=O)c2ccccc21 |
| 787 | Cc1cccc(N2CCN(Cc3nc(-c4ccc(N5CCCC5)nc4)no3)CC2)c1C |
| 1200 | Cc1nc2cc(-c3noc(Cc4cccs4)n3)ccc2n(C2CCCC2)c1=O |
| 613 | CC1=C(C(=O)Nc2ccccc2F)C2(CCN(C(C)C)CC2)OC1=O |
| 711 | CNC(=O)N1CCCN(C2=NS(=O)(=O)C(c3ccc(C)c(C)c3)=C2C)CC1 |
| 656 | CCOCCCNC(=O)C1CCN(S(=O)(=O)c2ccc3c(c2)CCCC(=O)N3)CC1 |
| 735 | CC(=O)N1CCOc2ccc(S(=O)(=O)N3CCCC3C(=O)Nc3nccs3)cc21 (configuration not stated) |
| 902 | Cc1ccccc1CNC(=O)Cn1c(C)cc(-c2nnc(C3CCC3)o2)c1C |
| 585 | COc1ccc(-c2nc(C)cc(C)c2CNC(=O)c2ccco2)cc1 |
| 801 | O=C(C1CCN(c2ccc(Sc3ccc(Cl)cc3)nn2)CC1)N1CCN(c2ncccn2)CC1 |
| 571 | CCCCC(=O)Nc1ccc2nc(N3CCN(CC)CC3)cc(C(=O)O)c2c1 |
| 664 | O=C(Nc1nc2c(s1)COCC2)c1cccs1 |
| 680 | Cc1nn(C(C)C(=O)NCCN2CCCCC2C)c(=O)c2c1sc1ccccc12 (configuration not stated) |
| 712 | O=C(NC1CC1)c1nc(Nc2ccc(F)cc2)c2ccccc2n1 |
| 602 | O=C1CCCN1CCCN(CC(=O)N1CCNCC1)C(=O)c1ccc(C(F)(F)F)cc1 |
| 643 | O=C(NCC1CC1)C1CCCN(c2cnc3nccnc3c2)C1 (configuration not stated) |
| 1170 | CC(C)n1c(=O)oc2cc(-c3noc(COc4ccc(Cl)cc4)n3)ccc21 |

| SMILES | RP-LC retention time [s] |
| --- | --- |
| C[C@@H]1OC(=O)[C@H]2C[C@H]3CCCC[C@@H]3[C@@H](/C=C/[C@H]3CCC[C@H](C)N3C)[C@@H]12 | 745 |
